Data: PMC7504721, “Targeting the Initiator Protease of the Classical Pathway of Complement Using Fragment-Based Drug Discovery” (Molecules, 2020)

Tested on: lectin pathway
Experiment: Lectin pathway-specific ELISA (mannan, C1q-depleted serum, C4b detection)
Assay type: biochemical, human
Conditions: single dose 500 µM, triplicate, 2% C1q-depleted serum
Procedure: Figure 5 Selectivity and mechanistic analysis of CMP-1611 and CMP-1696. (A) Chemical structure of CMP-1611. (B) Chemical structure of CMP-1696. (C) Dose-dependent inhibition by CMP-1611 and CMP-1696 in a classical pathway-specific ELISA. Data were fit with GraphPad Prism using non-linear regression with a log(inhibitor) vs. response model. […] (D) Complement pathway selectivity of CMP-1611 and CMP-1696. Compounds were assessed for their ability to inhibit activation of complement via the lectin and alternative pathways using single doses of 500 µM compound in triplicate. To ensure only lectin pathway activation, 2% (v/v) C1q-depleted serum (CompTech) was used and mannan was used as the activator. To match serum sources and amounts for this assay, the classical pathway assays were repeated here using serum from CompTech at 2% (v/v) final concentration. Alternative pathway activation assays were performed using 20% (v/v) serum (CompTech), alternative pathway buffers, and C3b detection (see Methods and Materials for details). […]
To carry out classical pathway ELISA-based inhibition assays, IgM was dissolved in coating buffer (100 mM Na2CO3/NaHCO3, pH 9.6) to a final concentration of 3 µg/mL and was dispensed into 96-well plates at 100 µL per well. […] The reaction was stopped with 50 µL of 0.16 M sulfuric acid, and the plate was read at 450 nm using an EnSight multimode plate reader (Perkin-Elmer). […]

SMILES | inhibition of lectin pathway activation
COCc1nc(-c2ccc(OC3CNC3)cc2)no1 [CMP-1696] | blocked
CN(C)c1cc(N2CCCC(N)C2)ncn1 (centres unmarked) [CMP-1611] | no effect
